Laboratory results reported in US10722505B2, “Substituted 2,4 diamino-quinoline as new anticancer agents” (GENOSCIENCE PHARMA, priority 2014, dated 2020).
Counter-ions that a name gives are not always drawn.

Tests used:
Huh-7 cell line = assay: CellTiter-Glo growth inhibition assay, Huh-7; format: cell-based; conditions: Homo sapiens; Huh-7, hepatocellular carcinoma, 72 h
Experimental: All cell lines were maintained in medium containing 1% penicillin-streptomycin (Dutscher, P06-07100) and 10% Fetal Bovine Serum (Gibco, W3387L) except 20% for KG-1 cell line and PBMC, and cultured at 37° C. with 5% CO2.
HepG2, Huh7, HCT-116, MDA-MB-231 and A375 cell lines were cultured in Dulbecco's modified Eagle's medium (Dutscher, L0103).
(§1) Cell viability was measured using the CellTiter-Glo® luminescent cell viability assay as described by the manufacturer (Promega, Ref G7571) using an Infinite F200Pro luminometer (Tecan). Briefly, for adherent cells, cells were plated onto 96-well plates (white with clear bottom) in 90 μL of media per well and were allowed to grow overnight before the assay. For cells growing in suspension, cells were plated onto 96-well plates immediately before the assay.
Compounds were added at different concentrations to each well, and cell cultures were incubated for 72 h. Vehicle (H2O) was used as a control, and all compounds were tested in a constant percentage of H2O. After addition of 100 μL of CellTiter-Glo®, luminescence was measured using an Infinite F200Pro (Tecan). EC50 values were determined as the dose of compound required to reduce luminescent values to 50% of the signal obtained for untreated cell cultures. The experimental data were analyzed using a computer program, Graphpad Prism v5 (GraphPad Software, Inc. La Jolla, Calif.). […]

786-O cell line = assay: CellTiter-Glo growth inhibition assay, 786-O; format: cell-based; conditions: Homo sapiens, 786-0, 72 h
Experimental: CAKI-1 and 786-0 cell lines were maintained in RPMI 1640 medium (Dutscher, L0498) containing 1% penicillin-streptomycin (Dutscher, P06-07100) and 10% Fetal Bovine Serum (Gibco, W3387L) and cultured at 37° C. with 5% CO2.
as §1, with “Briefly,” for “Briefly, for adherent cells,”, “assay.” for “assay. For cells growing in suspension, cells were plated onto 96-well plates immediately before the assay.”
Compounds 2-3 and two reference compounds (Sorafenib and Sunitinib) were added at different concentrations to each well, and cell cultures were incubated for 72 h. For compound 2-3 analysis, H2O was used as a negative control (=untreated) and all concentrations were tested in a constant percentage of H2O. For Sorafenib and Sunitinib analysis, DMSO was used as a negative control (=untreated) and all concentrations were tested in a constant percentage of DMSO. 72 h after incubation of compounds, 100 μL of CellTiter-Glo® were added to each well and luminescence was measured using an Infinite F200Pro (Tecan). EC50 values were determined as the dose of compound required to reduce luminescent values to 50% of the signal obtained for untreated cell cultures. The experimental data were analyzed using a computer program, Graphpad Prism v5 (GraphPad Software, Inc. La Jolla, Calif.). All experiments were at least done in triplicate and repeated at least three independent times.

[1] = system: LI1005 HCC patient derived cells; assay: CellTiter-Glo growth inhibition, HCC patient-derived cells LI1005; format: cell-based, human; conditions: Homo sapiens; LI1005, 72 hours
Experimental: The patient derived Hepatocellular Carcinoma (HCC) cells were maintained in medium respectively described in table 15 containing 1% penicillin-streptomycin (Life Technologies, 15070-063), with a supplements for primary cell culture (PCS) containing hydrocortisone (50 nM), Epidermal Growth Factor (20 ng/ml), β-fibroblast Growth Factor (10 ng/ml), Heparin (2 μg/ml) ITS liquid media supplement (1×) and non-essential amino acid (NEAA, 0.01 mM, 1×). The primary cell were cultured in a humidified atmosphere (95% relative humidity) with 5% CO2 at 37° C.
The cell growth inhibition assay was performed as described previously in example 5 using the CellTiter-Glo® luminescent cell viability assay as described by the manufacturer (Promega, Ref G7571). The number of cells seeded per well (in 96-Well Flat Clear Bottom Black Polystyrene TC-Treated Microplates, Cat #3340, Corning®) is described in the table 16. A backseal black sticker (Cat #6005189, Perkin Elmer) was placed to the bottom of each plate before recording CellTiter-Glo® luminescence.
The experimental data are analyzed using a computer program, Graphpad Prism V 5.0 (GraphPad Software, Inc. La Jolla, Calif.) and EC50 values were determined as the dose of compound required to reduce absorbance values to 50% of the signal obtained for vehicle treated cell cultures and were a mean of at least three independent experiments.

[2] = system: ALDH+ (CSC) population of MOLM-14 cell line; assay: Aldefluor kit assay, ALDH+ compartment in MOLM-14; format: cell-based, human; conditions: 72 h, control = 100
Description: Analysis of the of aldehyde dehydrogenase (ALDH) compartment and high activity level of aldehyde dehydrogenase activity (ALDH+) was used to detect tumor initiating cells (cancer stem cells, CSC) population. The Aldefluor™ kit assay (StemCell Technologies, 01700) allowed to assess the activity of drugs on CSC cells like in a MOLM-14 acute myeloid leukemia cell line population (ref: Storms, R. W., Trujillo, A. P., Springer, J. B., Shah, L., Colvin, O. M., Ludeman, S. M., & Smith, C. (1999). Isolation of primitive human hematopoietic progenitors on the basis of aldehyde dehydrogenase activity. Proceedings of the National Academy of Sciences, 96(16), 9118-9123). The Aldefluor™ kit assay was used according to the procedure described by the manufacturer. Briefly, MOLM-14 cell line was cultured in MEM alpha medium supplemented with 10% v/v Fetal Bovine Serum, 1% Penicillin-Streptomycin and maintained at 37° C. with 5% CO2. 5·10^5 cells were used in this assay. Each compound was added at different concentrations (see table 8), and cell cultures were incubated for 72 h. Vehicle (H2O) was used as a control, and all compounds were tested in a constant percentage of vehicle. Cells obtained from cell culture were incubated for 45 minutes at 37° C. with Aldefluor™ buffer assay containing the Bodipy™-aminoacetaldehyde, a fluorescent ALDH aldehyde substrate. ALDH converts the fluorescent substrate BAAA to the Bodipy™-aminoacetic acid (BAA) which is retained in the cell. An active efflux inhibitor is present in the Adelfluor™ assay buffer in order to avoid the active efflux from the cell of the substrate product ALDH dependent converted BAA. The fluorescent signal is directly proportional to the ALDH activity in the cells and is measured by flow cytometry. A negative control is used to measure the background fluorescence level. For such purpose, 4-(N,N-diethylamino)-benzaldehyde (DEAB) was used as selective ALDH inhibitor. A viability cell count was performed using LIVE/DEAD® Fixable Far Red Dead Cell Stain Kit (Invitrogen). The experimental data are analyzed using a computer program, Graphpad Prism v5 (GraphPad Software, Inc. La Jolla, Calif.) and EC50 values were determined as the dose of compound required to reduce absorbance values to 50% of the signal obtained for vehicle treated cell cultures.

EC50 (Huh-7 cell line): 1700 nM
EC50 (786-O cell line): 2100 nM
EC50 [1]: 3200 nM
Compound: CC(C)(C)NC1CCN(c2cc(NCc3ccc(Cl)cc3)nc3ccccc23)CC1 [Compound 2-3, 2-(4-chlorobenzylamino)-4-(4-tert-butylaminopiperidin-1-yl)-quinoline hydrochloride salt]
ALdefluor positive CSCs (%) ([2]; MOLM-14, 2.5 μM): 100%
ALdefluor positive CSCs (%) ([2]; MOLM-14, 5.0 μM): 80%
ALdefluor positive CSCs (%) ([2]; MOLM-14, 7.5 μM): 20%
